Measurements reported in the supplement of paper PMC10307832.

Assays:
Assay in all cases: relative viability (nuclei count vs DMSO), 5 days (fraction); higher = more cells survive
Bosutinib + Palbociclib = compound: COc1cc(Nc2c(C#N)cnc3cc(OCCCN4CCN(C)CC4)c(OC)cc23)c(Cl)cc1Cl [Bosutinib] + CC(=O)c1c(C)c2cnc(Nc3ccc(N4CCNCC4)cn3)nc2n(C2CCCC2)c1=O [Palbociclib] (partner 0.5 µM)
How it was run: (§1)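 Relative viability divides the nuclei count in treated wells by that in vehicle wells. Lung cancer cell lines were seeded in 1536-well plates, dosed by pin tool the next day, and fixed and stained after 5 days in one step with final 0.05% Triton X-100, 1% formaldehyde and 1 ug/ml Hoechst. Dosing was a single drug or a fixed anchor-drug dose plus five library-drug doses (not always all listed) in √10 steps, and values are medians of duplicate plates imaged at 4×.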

Bosutinib + Bortezomib = compound: COc1cc(Nc2c(C#N)cnc3cc(OCCCN4CCN(C)CC4)c(OC)cc23)c(Cl)cc1Cl [Bosutinib] + CC(C)C[C@H](NC(=O)[C@H](Cc1ccccc1)NC(=O)c1cnccn1)B(O)O [Bortezomib] (partner 0.002 µM)
How it was run: as §1

Bosutinib + Foretinib = compound: COc1cc(Nc2c(C#N)cnc3cc(OCCCN4CCN(C)CC4)c(OC)cc23)c(Cl)cc1Cl [Bosutinib] + COc1cc2c(Oc3ccc(NC(=O)C4(C(=O)Nc5ccc(F)cc5)CC4)cc3F)ccnc2cc1OCCCN1CCOCC1 [Foretinib] (partner 0.25 µM)
How it was run: as §1

Bosutinib + Pemetrexed = compound: COc1cc(Nc2c(C#N)cnc3cc(OCCCN4CCN(C)CC4)c(OC)cc23)c(Cl)cc1Cl [Bosutinib] + Nc1nc2[nH]cc(CCc3ccc(C(=O)N[C@@H](CCC(=O)O)C(=O)O)cc3)c2c(=O)[nH]1 [Pemetrexed] (partner 0.2 µM)
How it was run: as §1

Bosutinib + Decitabine = compound: COc1cc(Nc2c(C#N)cnc3cc(OCCCN4CCN(C)CC4)c(OC)cc23)c(Cl)cc1Cl [Bosutinib] + Nc1ncn([C@H]2C[C@H](O)[C@@H](CO)O2)c(=O)n1 [Decitabine] (partner 2 µM)
How it was run: as §1

| Cell Line | relative viability (Bosutinib + Palbociclib; first compound 0.01 µM) | relative viability (Bosutinib + Palbociclib; first compound 0.03162 µM) | relative viability (Bosutinib + Palbociclib; first compound 0.1 µM) | relative viability (Bosutinib + Palbociclib; first compound 1 µM) | relative viability (Bosutinib + Bortezomib; first compound 0.01 µM) | relative viability (Bosutinib + Bortezomib; first compound 0.03162 µM) | relative viability (Bosutinib + Bortezomib; first compound 0.1 µM) | relative viability (Bosutinib + Bortezomib; first compound 1 µM) | relative viability (Bosutinib + Foretinib; first compound 0.01 µM) | relative viability (Bosutinib + Foretinib; first compound 0.03162 µM) | relative viability (Bosutinib + Foretinib; first compound 0.1 µM) | relative viability (Bosutinib + Foretinib; first compound 1 µM) | relative viability (Bosutinib + Pemetrexed; first compound 0.01 µM) | relative viability (Bosutinib + Pemetrexed; first compound 0.03162 µM) | relative viability (Bosutinib + Pemetrexed; first compound 0.1 µM) | relative viability (Bosutinib + Pemetrexed; first compound 1 µM) | relative viability (Bosutinib + Decitabine; first compound 0.01 µM) | relative viability (Bosutinib + Decitabine; first compound 0.03162 µM) | relative viability (Bosutinib + Decitabine; first compound 0.1 µM) | relative viability (Bosutinib + Decitabine; first compound 1 µM) |
| --- | --- | --- | --- | --- | --- | --- | --- | --- | --- | --- | --- | --- | --- | --- | --- | --- | --- | --- | --- | --- |
| LCLC-97TM1 | 0.224 | 0.245 | 0.256 | 0.2 | 0.567 | 0.937 | 0.894 | 0.572 | 0.902 | 0.902 | 0.904 | 0.894 | 0.18 | 0.181 | 0.211 | 0.228 | 0.249 | 0.262 | 0.215 | 0.271 |
| LCLC-103H | 0.497 | 0.498 | 0.452 | 0.491 | 1.03 | 1.13 | 1.13 | 0.936 | 0.844 | 0.674 | 0.804 | 0.878 | 0.442 | 0.516 | 0.5 | 0.449 | 0.744 | 0.792 | 0.723 | 0.69 |
| LOU-NH91 | 0.529 | 0.541 | 0.541 | 0.563 | 0.469 | 0.487 | 0.514 | 0.578 | 0.912 | 0.929 | 0.845 | 0.538 | 0.394 | 0.395 | 0.378 | 0.4 | 0.818 | 0.834 | 0.765 | 0.653 |
| LU99A | 0.45 | 0.409 | 0.44 | 0.421 | 1.16 | 1.17 | 1.33 | 0.938 | 0.853 | 1.04 | 0.967 | 1.07 | 0.2 | 0.208 | 0.193 | 0.182 | 0.871 | 0.945 | 0.961 | 0.861 |
| LXF-289 | 0.634 | 0.614 | 0.607 | 0.669 | 1 | 1.03 | 1.02 | 0.991 | 0.926 | 1 | 0.979 | 0.913 | 0.908 | 1.04 | 0.985 | 0.88 | 0.338 | 0.368 | 0.427 | 0.449 |
| NCI-H23 | 0.515 | 0.476 | 0.464 | 0.591 | 1 | 1.21 | 1.04 | 1.05 | 0.939 | 1.03 | 0.979 | 0.723 | 0.673 | 0.644 | 0.732 | 0.609 | 0.35 | 0.305 | 0.321 | 0.287 |
| NCI-H322M | 0.523 | 0.452 | 0.492 | 0.414 | 1.23 | 1.14 | 1.35 | 1.22 | 1.04 | 0.867 | 0.881 | 0.414 | 0.579 | 0.594 | 0.6 | 0.521 | 0.635 | 0.735 | 0.616 | 0.493 |
| NCI-H441 | 0.193 | 0.217 | 0.262 | 0.22 | 0.579 | 0.726 | 0.44 | 0.806 | 1.03 | 1.21 | 1.22 | 1.25 | 0.242 | 0.272 | 0.264 | 0.251 | 0.24 | 0.264 | 0.279 | 0.287 |
| NCI-H460 | 0.165 | 0.173 | 0.148 | 0.0817 | 1.17 | 1.04 | 1.01 | 0.91 | 1.01 | 1.03 | 1 | 0.855 | 0.0612 | 0.0671 | 0.0657 | 0.073 | 0.5 | 0.475 | 0.539 | 0.419 |
| NCI-H520 | 0.206 | 0.227 | 0.208 | 0.169 | 0.771 | 0.419 | 0.52 | 0.396 | 0.929 | 0.857 | 0.789 | 0.551 | 0.661 | 0.666 | 0.627 | 0.605 | 0.465 | 0.47 | 0.533 | 0.409 |
| NCI-H647 | 0.528 | 0.394 | 0.452 | 0.299 | 1.06 | 1.06 | 0.919 | 0.405 | 1.28 | 1.17 | 1.31 | 0.778 | 0.221 | 0.179 | 0.162 | 0.171 | 0.442 | 0.36 | 0.302 | 0.386 |
| NCI-H650 | 0.398 | 0.325 | 0.332 | 0.406 | 0.875 | 0.854 | 0.858 | 0.962 | 1.05 | 1 | 1.09 | 1.04 | 0.893 | 0.846 | 0.972 | 0.953 | 0.327 | 0.295 | 0.29 | 0.419 |
| NCI-H661 | 0.392 | 0.398 | 0.434 | 0.363 | 1.05 | 0.802 | 0.733 | 0.446 | 1.07 | 0.995 | 0.968 | 0.596 | 0.919 | 0.908 | 0.952 | 0.741 | 0.57 | 0.537 | 0.521 | 0.426 |
| NCI-H838 | 0.23 | 0.209 | 0.2 | 0.174 | 0.97 | 0.794 | 0.78 | 0.577 | 1.08 | 1.02 | 0.989 | 0.598 | 0.268 | 0.229 | 0.246 | 0.253 | 0.467 | 0.507 | 0.422 | 0.411 |
| NCI-H1355 | 0.415 | 0.396 | 0.386 | 0.372 | 1.27 | 1.24 | 1.3 | 1.21 | 0.956 | 0.973 | 1.01 | 0.917 | 1.05 | 0.975 | 1.06 | 1.05 | 0.304 | 0.366 | 0.352 | 0.368 |
| NCI-H1437 | 0.332 | 0.281 | 0.317 | 0.343 | 0.599 | 0.485 | 0.464 | 0.436 | 1.23 | 1.2 | 1.14 | 1.1 | 0.317 | 0.377 | 0.311 | 0.29 | 0.536 | 0.567 | 0.572 | 0.482 |
| NCI-H1650 | 0.343 | 0.315 | 0.304 | 0.188 | 0.215 | 0.204 | 0.214 | 0.279 | 0.917 | 1.09 | 0.862 | 0.599 | 0.304 | 0.366 | 0.404 | 0.301 | 0.457 | 0.378 | 0.378 | 0.511 |
| NCI-H1651 | 0.506 | 0.535 | 0.507 | 0.534 | 0.914 | 0.942 | 0.994 | 0.978 | 0.75 | 0.737 | 0.909 | 0.8 | 0.529 | 0.678 | 0.643 | 0.569 | 0.511 | 0.711 | 0.688 | 0.625 |
| NCI-H1666 | 0.663 | 0.664 | 0.634 | 0.674 | 0.794 | 0.74 | 0.977 | 0.746 | 1.04 | 0.936 | 0.976 | 0.921 | 0.827 | 0.888 | 0.833 | 0.912 | 0.63 | 0.868 | 0.72 | 0.802 |
| NCI-H1734 | 0.334 | 0.367 | 0.365 | 0.299 | 0.948 | 0.951 | 0.827 | 0.879 | 0.888 | 0.837 | 0.849 | 0.719 | 0.401 | 0.392 | 0.445 | 0.377 | 0.511 | 0.55 | 0.483 | 0.458 |
| NCI-H1755 | 0.435 | 0.456 | 0.433 | 0.469 | 0.941 | 1.07 | 1.03 | 0.894 | 0.974 | 0.988 | 0.983 | 0.801 | 0.405 | 0.488 | 0.468 | 0.45 | 0.639 | 0.678 | 0.713 | 0.804 |
| NCI-H1915 | 0.521 | 0.513 | 0.544 | 0.56 | 0.942 | 0.932 | 1.02 | 1.01 | 1.07 | 1.1 | 1.11 | 1.11 | 0.461 | 0.504 | 0.533 | 0.46 | 0.265 | 0.261 | 0.242 | 0.267 |
| NCI-H1975 | 0.572 | 0.638 | 0.625 | 0.516 | 0.432 | 0.399 | 0.424 | 0.388 | 0.981 | 0.975 | 0.977 | 0.841 | 0.287 | 0.289 | 0.292 | 0.281 | 0.45 | 0.369 | 0.398 | 0.371 |
| NCI-H1993 | 0.67 | 0.783 | 0.718 | 0.619 | 1.11 | 1.26 | 1.08 | 0.949 | 0.819 | 0.672 | 0.778 | 0.564 | 0.506 | 0.663 | 0.611 | 0.686 | 0.599 | 0.655 | 0.655 | 0.568 |
| NCI-H2009 | 0.246 | 0.302 | 0.195 | 0.147 | 1.17 | 1.08 | 1.1 | 0.795 | 1.22 | 1.24 | 1.2 | 0.857 | 0.944 | 1.06 | 1.17 | 0.946 | 0.365 | 0.468 | 0.345 | 0.36 |
| NCI-H2023 | 0.373 | 0.368 | 0.387 | 0.297 | 0.945 | 1.01 | 1.06 | 0.813 | 0.874 | 0.921 | 0.81 | 0.498 | 0.218 | 0.263 | 0.23 | 0.223 | 0.233 | 0.248 | 0.216 | 0.25 |
